{"source": "patent US11760775B2", "about": "“Steroids and protein-conjugates thereof” (Regeneron Pharmaceuticals, Inc., priority 2016, dated 2023)", "key": {"[1]": {"test_system": "human monocyte derived-DC", "assay": "Ex vivo LPS-induced cytokine production in human monocyte derived DCs", "assay_type": "cell-based", "parameters": "IL-6 / IL-8 / TNF-a / IL-12p70 / IL-1b: unit not given here", "description": "The complete-RPMI with IL4 and GM-CSF was changed every three days. […]\n(§1) Supernatants were collected into 96-well round bottom tissue culture plates 24 hours post-LPS challenge and stored at −20° C. until further analysis. Cytokine concentrations in the supernatants were measured using a Pro-inflammatory Panel 1 (mouse) multiplex immunoassay kit (MesoScale Discovery, Cat #K15048D) according to manufacturer's instructions or Pro-inflammatory Panel 1 (human) multiplex immunoassay kit (MesoScale Discovery, Cat #K15049D). In brief, 50 μL/well of calibrators and samples (diluted in Diluent 1:2) were added to the plates pre-coated with capture antibodies and incubated at room temperature while shaking at 700 rpm for 2 hours. The plates were then washed 3 times with 1×PBS containing 0.05% (w/v) Tween-20, followed by the addition of 25 μL of Detection Antibody Solution diluted in Diluent 45. After 2-hour incubation at room temperature while shaking, the plates were washed 3 times, and 150 μL of 2× Read Buffer was added to each well. Electrochemiluminescence was immediately read on a MSD Spector® instrument. Data analysis was performed using GraphPad Prism™ software. Statistical significance within the groups was determined by one-way Anova with Turkey's multiple comparison post-test and standard error of mean (SEM±) calculated."}, "[2]": {"test_system": "LPS-induced cytokine release (TNF-α)", "assay": "Mouse model of LPS induced cytokine release (TNF-α in plasma)", "assay_type": "in vivo, C57BL/6j mice"}, "[3]": {"assay": "Pharmacokinetics of 4b and 6-I in mice (blood concentration-time)", "assay_type": "in vivo, C57BL/6j mice", "conditions": "IP, 1 mg/Kg in male C57BL/6 mice; Mean"}, "CD11c+ splenic DCs": {"test_system": "CD11c+ splenic DCs", "assay": "Ex vivo LPS-induced cytokine production in mouse splenic CD11c+ dendritic cells", "assay_type": "cell-based, C57Bl/6 mice", "parameters": "TNF-a / IL-12p70 / IL-1b / IL-6 / KC-GRO: unit not given here", "description": "as §1"}, "[4]": {"test_system": "GR activation in 293/PRLR/GRE-Luc cells (HEK293/9xUAS-Luc2P/pBind-GR/PRLR-HA high cells)", "assay": "GR co-activator luciferase reporter cell based assay in 293/PRLR/GRE-Luc cells", "parameters": "species or system human", "conditions": "read-out: EC50 in 293/PRLR/GRE-Luc; 72 hrs of incubation", "procedure,_shortened": "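EC50 was derived from a 10-point, four-parameter logistic fit of One-Glo luminescence. The reporter is driven by Gal4UAS through GR ligand-binding domain fused to Gal4 DBD in PRLR-expressing 293 cells, after ADC internalization or free steroid exposure. Activation below 10% of the free-payload maximum counts as minimal.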"}, "[5]": {"test_system": "GR activation in 293/GRE-Luc cells (293_PBind GR/UAS-Luc)", "assay": "Luciferase reporter assay in antigen negative 293/GRE-Luc cells", "assay_type": "cell-based, human", "conditions": "read-out: EC50 in 293/GRE-Luc; 72 hrs of incubation; antigen negative cells"}, "[6]": {"assay": "Solubility in water and DMSO/water", "conditions": "10% DMSO in water, aqueous with cosolvent or surfactant or cyclodextrin"}}, "note": "Where “and” joins values, the source holds several entries; their conditions need not be identical. Equal entries are not always repeated. Where two headings read alike, the source gives them in different places.", "data": [{"smiles": "C[C@@H]1C[C@H]2[C@@H]3CCC4=CC(=O)C=C[C@]4(C)[C@@]3(F)[C@@H](O)C[C@]2(C)[C@@]1(O)C(=O)CO", "note": "[Dexamethasone, dexamethasone, reference compound]", "values": [{"measurement": "IL-1b", "setting": "[1]", "result": "0.625 ± 0.006"}, {"measurement": "Pro-inflammatory cytokine production", "setting": "[1]; Condition 1: entire 7-day conditioning period", "result": "significantly reduced pro-inflammatory cytokine production"}, {"measurement": "IL-1b", "setting": "[1]; Condition 1, 10 nM + LPS", "result": "1.77 ± 0.11"}, {"measurement": "IL-6", "setting": "[1]; Condition 1, 10 nM + LPS", "result": "687.45 ± 2.17"}, {"measurement": "IL-8", "setting": "[1]; Condition 1, 10 nM + LPS", "result": "8789.98 ± 126.98"}, {"measurement": "IL-12p70", "setting": "[1]; Condition 1, 10 nM + LPS", "result": "4.83 ± 0.05"}, {"measurement": "TNF-a", "setting": "[1]; Condition 1, 10 nM + LPS", "result": "242.34 ± 10.75"}, {"measurement": "IL-6", "setting": "[1]; Condition 1, 10 nM, no LPS", "result": "2.68 ± 0.03"}, {"measurement": "IL-8", "setting": "[1]; Condition 1, 10 nM, no LPS", "result": "174.59 ± 0.68"}, {"measurement": "IL-12p70", "setting": "[1]; Condition 1, 10 nM, no LPS", "result": "0.65 ± 0.02"}, {"measurement": "TNF-a", "setting": "[1]; Condition 1, 10 nM, no LPS", "result": "2.32 ± 0.098"}, {"measurement": "Production of IL12p70, IL6 and TNF-α", "setting": "[1]; Condition 2: conditioning of mature monocyte-derived DCs", "result": "significantly decreased the production of IL12p70, IL6 and TNF-α"}, {"measurement": "IL-1b", "setting": "[1]; Condition 2, 10 nM + LPS", "result": "37.88 ± 1.90"}, {"measurement": "IL-6", "setting": "[1]; Condition 2, 10 nM + LPS", "result": "5747.37 ± 234.08"}, {"measurement": "IL-8", "setting": "[1]; Condition 2, 10 nM + LPS", "result": "3314.0 ± 37.86"}, {"measurement": "IL-12p70", "setting": "[1]; Condition 2, 10 nM + LPS", "result": "6.32 ± 1.69"}, {"measurement": "TNF-a", "setting": "[1]; Condition 2, 10 nM + LPS", "result": "994.92 ± 73.66"}, {"measurement": "IL-1b", "setting": "[1]; Condition 2, 10 nM, no LPS", "result": "0.611 ± 0.003"}, {"measurement": "IL-6", "setting": "[1]; Condition 2, 10 nM, no LPS", "result": "14.76 ± 0.267"}, {"measurement": "IL-8", "setting": "[1]; Condition 2, 10 nM, no LPS", "result": "288.23 ± 6.02"}, {"measurement": "IL-12p70", "setting": "[1]; Condition 2, 10 nM, no LPS", "result": "0.64 ± 0.03"}, {"measurement": "TNF-a", "setting": "[1]; Condition 2, 10 nM, no LPS", "result": "1.73 ± 0.02"}, {"measurement": "Inhibition of TNF-α production", "setting": "[2]; 5 mpk ip before LPS challenge, plasma at 2 hr time point", "result": "significantly inhibit TNF-α"}, {"measurement": "TNF-a", "setting": "[2]; plasma 2 hr post LPS challenge, 5MPK ip (−2 h) prior to LPS, individual mice, listed as DEX", "result": "644.3 pg/mL and 508.5 pg/mL and 487.1 pg/mL"}, {"measurement": "AUCINF", "setting": "[3]", "result": 562, "unit": "ng·h/mL"}, {"measurement": "AUClast", "setting": "[3]", "result": 545, "unit": "ng·h/mL"}, {"measurement": "Cmax", "setting": "[3]", "result": 231, "unit": "ng/mL"}, {"measurement": "IL-1b", "setting": "CD11c+ splenic DCs; 10 nM + LPS", "result": "34.76 ± 4.33"}, {"measurement": "IL-6", "setting": "CD11c+ splenic DCs; 10 nM + LPS", "result": "714.89 ± 77.13"}, {"measurement": "IL-12p70", "setting": "CD11c+ splenic DCs; 10 nM + LPS", "result": "30.41 ± 3.22"}, {"measurement": "KC-GRO", "setting": "CD11c+ splenic DCs; 10 nM + LPS", "result": "399.40 ± 49.75"}, {"measurement": "TNF-a", "setting": "CD11c+ splenic DCs; 10 nM + LPS", "result": "2496.27 ± 415.75"}, {"measurement": "LPS-induced cytokine responses in CD11c+ DCs", "setting": "CD11c+ splenic DCs; 10 nM and 100 nM for 24 hours before LPS 10 ng/mL", "result": "significantly decreased LPS-induced cytokine responses"}, {"measurement": "IL-1b", "setting": "CD11c+ splenic DCs; 10 nM, no LPS", "result": "6.299 ± 0.33"}, {"measurement": "IL-6", "setting": "CD11c+ splenic DCs; 10 nM, no LPS", "result": "98.93 ± 8.98"}, {"measurement": "IL-12p70", "setting": "CD11c+ splenic DCs; 10 nM, no LPS", "result": "8.55 ± 1.08"}, {"measurement": "KC-GRO", "setting": "CD11c+ splenic DCs; 10 nM, no LPS", "result": "75.75 ± 8.03"}, {"measurement": "TNF-a", "setting": "CD11c+ splenic DCs; 10 nM, no LPS", "result": "0 ± 0"}, {"measurement": "IL-1b", "setting": "CD11c+ splenic DCs; 100 nM + LPS", "result": "10.58 ± 0.88"}, {"measurement": "IL-6", "setting": "CD11c+ splenic DCs; 100 nM + LPS", "result": "303.48 ± 11.37"}, {"measurement": "IL-12p70", "setting": "CD11c+ splenic DCs; 100 nM + LPS", "result": "9.29 ± 3.28"}, {"measurement": "KC-GRO", "setting": "CD11c+ splenic DCs; 100 nM + LPS", "result": "233.49 ± 18.48"}, {"measurement": "TNF-a", "setting": "CD11c+ splenic DCs; 100 nM + LPS", "result": "405.49 ± 70.23"}, {"measurement": "IL-1b", "setting": "CD11c+ splenic DCs; 100 nM, no LPS", "result": "5.25 ± 0.12"}, {"measurement": "IL-6", "setting": "CD11c+ splenic DCs; 100 nM, no LPS", "result": "55.07 ± 1.76"}, {"measurement": "IL-12p70", "setting": "CD11c+ splenic DCs; 100 nM, no LPS", "result": "6.05 ± 1.13"}, {"measurement": "KC-GRO", "setting": "CD11c+ splenic DCs; 100 nM, no LPS", "result": "65.99 ± 2.75"}, {"measurement": "TNF-a", "setting": "CD11c+ splenic DCs; 100 nM, no LPS", "result": "0 ± 0"}, {"measurement": "EC50", "setting": "[4]", "result": "< 5", "unit": "nM"}, {"measurement": "EC50", "setting": "[5]", "result": "< 5", "unit": "nM"}]}, {"smiles": "CCC[C@@H]1O[C@@H]2C[C@H]3[C@@H]4CCC5=CC(=O)C=C[C@]5(C)[C@H]4[C@@H](O)C[C@]3(C)[C@]2(C(=O)COc2ccc(NC(=O)[C@H](C)NC(=O)[C@@H](NC(=O)[C@@H](CCCCNC(=O)COC3CCCCCc4c3nnn4CC3OC4OC5C(CO)OC(OC6C(CO)OC(OC7C(CO)OC(OC8C(CO)OC(OC9C(CO)OC(OC3C(O)C4O)C(O)C9O)C(O)C8O)C(O)C7O)C(O)C6O)C(O)C5O)NC(=O)CCOCCOCCOCCOCCNC(=O)CCC(=O)N3Cc4ccccc4C#Cc4ccccc43)C(C)C)cc2)O1", "note": "(stereo partly drawn) [LP16]", "values": [{"measurement": "solubility", "setting": "[6]", "result": 100, "unit": "µg/mL"}]}]}
